# Data: patent publication US20120076785A1, “METHOD FOR INHIBITING NEURODEGENERATION” (GENENTECH, INC., priority 2009, published 2012)
# Where a SMILES comes first, the peptide text is derived from it. The star is where a group is joined. Cbz = O=C(OCc1ccccc1)*; CH2F = FC*
# Experiments:
# commissural neurons = test: dorsal spinal cord survival assay (commissural explant cultures); format: cell-based, rat
# Protocol: To examine functional roles of DR6 in axonal degeneration and programmed cell death of commissural neurons, an RNAi-based dorsal spinal cord survival assay (Kennedy et al., Cell, 78:425-435 (1994); Wang et al., supra, 1999) was conducted (see FIG. 3). E13 rat or E11.5 mouse embryos were placed in L15 medium (Gibco) and siRNAs (IDT) together with green fluorescent protein (“GFP”)-encoding plasmids were injected into the neural tubes. The siRNAs and plasmids were then delivered to dorsal progenitor cells by electroporation. Dorsal spinal cord explants were dissected out, embedded into a 3D-collagen gel matrix, and cultured in Opti-MEM/F12 medium (Invitrogen) with recombinant netrin-1 ([…]) and 5% horse serum (Sigma) at 37° C. in a 5% CO2 environment. Within 16 hours in response to chemo-attractant netrin-1, commissural axons grow out of the explant into the collagen matrix gel (Kennedy et al., supra, 1994). Commissural axons are visualized by GFP fluorescence by observation using an inverted microscope.
# Materials and methods used to generate the data shown in this figure are as follows. To investigate physiological roles of DR6 receptor in axonal degeneration and programmed cell death of commissural neurons, a dorsal spinal cord survival assay according to protocols known in the art (Kennedy et al., Cell 78:425-435 (1994); Wang et al., Nature 401:765-769 (1999)) was performed (with data shown in FIG. 4B). E13 rat embryos were placed in L15 medium (Gibco) and injected into their neural tubes with the following siRNA constructs (FIG. 4B):
# Control non-targeting, or targeting DR6 siRNA #2, or targeting DR6 siRNA #3 (IDT) together with either wild-type or mis-match DR6 cDNA and GFP-encoding plasmids. DR6 cDNA and GFP cDNA were subcloned into pCAGGS vector backbone (commercially available from BCCM/LMBP). siRNAs and plasmids were then delivered to dorsal progenitor cells by electroporation. Dorsal spinal cord explants were then dissected out, embedded into a 3D collagen gel matrix and cultured in Opti-MEM/F12 medium (Invitrogen) with recombinant netrin-1 and 5% horse serum (Sigma) at 37° C. in a 5% CO2 environment. Within 16 hours in response to chemo-attractant netrin-1 commissural axons grow out of the explant into the collagen matrix gel (Kennedy et al., Cell 78:425-435 (1994). Commissural axons are visualized by GFP fluorescence by observation using inverted microscope. After 48 hours in culture in the absence of trophic factor support derived from the floorplate, commissural neurons undergo programmed cell death and their axons degenerate (Wang et al., Nature, 401:765-769 (1999)) (FIG. 4B). However, the axonal degeneration program can be blocked by introduction of a targeting DR6-specific siRNA #3 (FIG. 4B). The specific, on-target effect of DR6-specific siRNA #3 is further confirmed in a rescue experiment in which axonal degeneration phenotype is restored by co-expression of the siRNA#3-resistant mis-match DR6 cDNA construct together with DR6 siRNA #3 (FIG. 4B). Presented experimental evidence establishes that DR6 receptor function is required for axonal degeneration and death of commissural neurons upon withdrawal from their intermediate target, the floorplate of the spinal cord.
# A dorsal spinal cord survival assay (as described in Example 2 above) was conducted using anti-DR6 antibodies. Microscopic observation (using green fluorescence channel for GFP) was employed to visualize commissural axons. […]
# sensory axons = test: NGF deprivation assay in Campenot chambers (local sensory axon degeneration); format: cell-based, mouse; settings: for sensory axonal degeneration induced by NGF withdrawal: 30 μg/ml hDR6-ECD-Fc in axonal compartment, 0 to 24 hours
# Protocol: Materials and methods used to generate the data shown in this figure are as follows. To examine whether ligand is required for DR6 function in sensory axonal degeneration, a compartmented culture analysis of sensory axon growth and degeneration was carried out as follows. A Campenot nerve cell chamber system was used to isolate neuronal processes (axons) from the cell bodies in different compartments (separate fluid environments), analogous to neuronal cell bodies in one location of the nervous system projecting their axons to a distal target in another location. The assay was carried out as originally described by Campenot (Campenot et al., J. Neurosci. 11(4): 1126-39 (1991)) with the following modifications. Briefly, 35-mm tissue culture dishes were coated with PDL/Laminin and scratched with a pin rake (Tyler Research) to generate tracks, as illustrated for example in FIGS. 1 and 4 of Campenot et al., supra.
# A drop of culture medium (Neurobasal medium with B27 supplement, 25 ng/ml of NGF, and 4 g/L of methylcellulose) was placed on the scratched substratum. A Teflon divider (Tyler Research) was seated on silicone grease and a dab of silicone grease was placed at the mouth of the center slot. Dissociated sensory neurons derived from E12.5 mouse DRGs were suspended in methylcellulose-thickened medium and loaded into a disposable sterile syringe fitted with a 22-gauge needle. This cell suspension was injected into the center slots of each compartmented dish under the dissecting microscope. The neurons were allowed to settle overnight. […]
# To trigger local axonal degeneration, NGF-containing medium from axonal compartments was substituted with neurobasal medium with an NGF blocking antibody (anti-NGF, Genentech, Inc., 20 ug/ml). Zero hours, 6 hours, or 24 to 48 hours following NGF deprivation, sensory neurons were fixed in 4% PFA for 30 minutes at room temperature and processed for immunofluorescence staining with axonal marker TUJ-1 (Covance, 1:500 dilution) to visualize degenerating axons by fluorescence microscopy (FIG. 11B) (as above described in Example 7). […]
# To examine whether ligand is required for DR6 function in axonal degeneration program triggered by NGF withdrawal, 30 μg/ml of hDR6-ECD-Fc immunoadhesin protein (described in Example 3 above) or 30 μg/ml of a control Fc (Genentech, Inc.) was included together with anti-NGF treatment in axonal compartments of Campenot Chambers. Zero to 24 hours after NGF deprivation, axons in Campenot Chambers were fixed with 4% PFA/PBS and visualized by immuno-fluorescence staining with TUJ-1 (1:500, Covance)/secondary antibody conjugated to a fluorescence group Alexa 488 (Molecular Probes, BD) (FIG. 11B). […]
# [1] = system: DR6-AP binding sites on BAX null sensory axons; test: in situ DR6-AP sensory axon binding assay; format: cell-based, mouse; settings: BACE inhibitor 1 uM; BAX null E12.5 sensory axons
# Protocol: For the in situ DR6-AP sensory axon binding assay, either wild-type or Bax null sensory explants were cultured in Neurobasal medium/B27 (Invitrogen) as outlined in the Examples 7-8 above, with 50 ng/mlNGF (Roche). Two days post-plating, DRG explants were either left untreated or deprived from NGF as described above in Examples 7-8. Bax inhibitory peptide was added where indicated on FIG. 12B (10 uM, Bax-V5, Tocris). Twelve hours post-NGF deprivation, DRG explants were washed twice with the binding buffer (HBSS, Gibco Cat. No. 14175-095, with 0.2% BSA, 0.1% NaN3, 5 mM CaCl2, 1 mM MgCl2, 20 mM HEPES, pH=7.0). AP binding assay was then carried out by making a 1:1 mixture of DR6-AP conditioned medium and the binding buffer (or control AP conditioned medium and the binding buffer), which was applied directly to DRG explants in 8-well culture slides (Becton, Dickinson and Company) and incubated for 90 minutes at room temperature.
# Following the incubation, unbound DR6-AP proteins were washed away by rinsing DRG explants five times with the binding buffer. DRG explants were then fixed with 3.7% formaldehyde diluted in PBS, for 12 minutes at room temperature. The remaining formaldehyde was removed by rinsing DRG explants 3 times with HBS buffer (20 mM HEPES pH=7.0, 150 mM NaCl). Endogenous AP activity was blocked by heat inactivation at 65° C. in HBS buffer for 30 minutes. […]
# [2] = biological target: p75 (as used in the ELISA and in general statements); test: ELISA, format not described (data not shown)
compound,measurement,setting,value
(L)-HIV-TAT48-57-PP-JBD20 [L-JNK-I],stereotyped degeneration of commissural neurons in DSC explant cultures,"commissural neurons; JNK inhibitor at 10 μM, 48 hr, no trophic factor, listed as L-JNKI-1",largely blocks stereotyped degeneration
same,axonal degeneration of commissural neurons,commissural neurons; peptide JNK inhibitor at 1 μM,partially blocked axonal degeneration
CC[C@H](C)[C@H](NC(=O)OCc1ccccc1)C(=O)N[C@@H](CCC(=O)OC)C(=O)N[C@H](C(=O)N[C@@H](CC(=O)OC)C(=O)CF)[C@@H](C)O [Z-IETD-FMK] (Cbz-IE(OMe)TD(OMe)-CH2F),axonal degeneration after NGF deprivation,"sensory axons; 24 hours anti-NGF, SP 600125 1 uM, Z-IETD-FMK 10 uM, Z-DEVD-FMK 10 uM",delayed
"Abeta: recombinant human Beta amyloid amino acids 1-42, Chemicon",induction of commissural axonal degeneration,commissural neurons; Abeta 1-42 3 μM added 24 hours after plating with BACE inhibitor 1 uM,axonal degeneration triggered
OM99-2,disappearance of DR6-AP binding sites from sensory axons following NGF withdrawal,[1],block the disappearance of DR6-AP binding sites
same,axonal degeneration after NGF deprivation,sensory axons; BACE inhibitor 1 uM,blocked
"hDR6-ECD-Fc: human DR6 extracellular domain sequence fused with Fc, SEQ ID NO: 4",sensory axonal degeneration induced by NGF withdrawal,sensory axons,delayed the onset of axonal degeneration
same,sensory axonal degeneration induced by NGF withdrawal,sensory axons; listed as DR6-Fc,delayed
same,commissural axon degeneration,"commissural neurons; 30 μg/ml and 10 μg/ml hDR6-ECD-Fc, 48 hours",delayed
APP (as used in the p75 ELISA) (from UniProt P05067 18-286) (ligand),EC50,[2],0.3 µM
5′-CAAUAGGUCAGGAAGAUGGCU-3′ [DR6-specific siRNA #3],axonal degeneration of commissural neurons,"commissural neurons; siRNA electroporated, 48 hours in culture without floorplate trophic support",blocked
